# Like-named read-outs stand apart in the source and are kept apart here.
# Experiments:
# Format in all cases: cell-based
# [1] = system: 100 A. baumannii strains (50 MDR, 50 non-MDR); test: MIC broth microdilution at IHMA Europe, panel of 100 strains; details: for MIC / MIC50 / MIC90: Acinetobacter baumannii
# [2] = system: E. faecalis ATCC 29212; test: IHMA QC MIC
# From the text: Supplement jm2c01905_si_004.xlsx, sheet "QC" | column: MIC [µg/mL]
# [3] = system: S. pneumoniae (n = 12); test: MIC broth microdilution at IHMA Europe; details: for MIC: Streptococcus pneumoniae, read-out: MIC
# [4] = system: P. aeruginosa ATCC 27853; test: IHMA QC MIC; details: Pseudomonas aeruginosa
structure (smiles),measurement,setting,value
"Cc1[nH]c(C(=O)Nc2nc3c(N4CCOCC4)cc(C(=O)O)cc3s2)c(Cl)c1Cl [7a, 2-(3,4-Dichloro-5-methyl-1H-pyrrole-2-carboxamido)-4-morpholinobenzo[d]thiazole-6-carboxylic Acid]",MIC,"[1]; A. baumannii IHMA 2058329, Slovenia 2019, Non-MDR",8 µg/mL
same,MIC,"[1]; A. baumannii IHMA 2099294, United Kingdom 2019, Non-MDR",8 µg/mL
same,MIC,"[1]; A. baumannii IHMA 2129256, Qatar 2019, Non-MDR",8 µg/mL
same,MIC,"[1]; A. baumannii IHMA 2154584, Israel 2020, MDR",8 µg/mL
same,MIC,"[1]; A. baumannii IHMA 2156634, Turkey 2020, MDR",8 µg/mL
same,MIC,"[1]; A. baumannii IHMA 2156709, Turkey 2020, MDR",8 µg/mL
same,MIC,"[1]; A. baumannii IHMA 2157614, Australia 2020, Non-MDR",16 µg/mL
same,MIC,"[1]; A. baumannii IHMA 2177232, Lithuania 2020, MDR",8 µg/mL
same,MIC,"[1]; A. baumannii IHMA 2177489, Lithuania 2020, MDR",8 µg/mL
same,MIC,"[1]; A. baumannii IHMA 2178574, Ukraine 2020, Non-MDR",16 µg/mL
same,MIC,"[1]; A. baumannii IHMA 2180134, Malaysia 2020, Non-MDR",8 µg/mL
same,MIC,"[1]; A. baumannii IHMA 2181370, Morocco 2020, MDR",8 µg/mL
same,MIC,"[1]; A. baumannii IHMA 2183729, Argentina 2020, MDR",16 µg/mL
same,MIC,"[1]; A. baumannii IHMA 2183849, Argentina 2020, Non-MDR",8 µg/mL
same,MIC,"[1]; A. baumannii IHMA 2193375, Venezuela 2020, MDR",8 µg/mL
same,MIC,"[1]; A. baumannii IHMA 2193607, Venezuela 2020, MDR",8 µg/mL
same,MIC,"[1]; A. baumannii IHMA 2195460, Italy 2020, MDR",8 µg/mL
same,MIC,"[1]; A. baumannii IHMA 2196914, South Africa 2020, MDR",8 µg/mL
same,MIC,"[1]; A. baumannii IHMA 2196959, South Africa 2020, MDR",8 µg/mL
same,MIC,"[1]; A. baumannii IHMA 2203763, Spain 2020, MDR",8 µg/mL
same,MIC,"[1]; A. baumannii IHMA 2212575, Hungary 2020, Non-MDR",16 µg/mL
same,MIC,"[1]; A. baumannii IHMA 2215307, Hong Kong 2020, Non-MDR",8 µg/mL
same,MIC,"[1]; A. baumannii IHMA 2216586, Taiwan 2020, MDR",8 µg/mL
same,MIC,"[1]; A. baumannii IHMA 2224017, Panama 2020, MDR",16 µg/mL
same,MIC,"[1]; A. baumannii IHMA 2224303, Panama 2020, Non-MDR",32 µg/mL
same,MIC,"[1]; A. baumannii IHMA 2233099, Guatemala 2020, MDR",16 µg/mL
same,MIC,"[1]; A. baumannii IHMA 2233430, Kazakhstan 2020, MDR",8 µg/mL
same,MIC,"[1]; A. baumannii IHMA 2233548, Kazakhstan 2020, Non-MDR",8 µg/mL
same,MIC,"[1]; A. baumannii IHMA 2238964, Thailand 2020, MDR",8 µg/mL
same,MIC,"[1]; A. baumannii IHMA 2239052, Thailand 2020, Non-MDR",8 µg/mL
same,MIC,"[1]; A. baumannii IHMA 2261047, Belgium 2020, MDR",16 µg/mL
same,MIC,"[1]; A. baumannii IHMA 2261633, Canada 2020, Non-MDR",16 µg/mL
same,MIC,"[1]; A. baumannii IHMA 2274234, South Africa 2020, MDR",8 µg/mL
same,MIC,"[1]; A. baumannii IHMA 2274364, South Africa 2020, MDR",8 µg/mL
same,MIC,"[1]; A. baumannii IHMA 2275237, Chile 2020, Non-MDR",8 µg/mL
same,MIC,"[1]; A. baumannii IHMA 2316205, United States 2020, MDR",8 µg/mL
same,MIC50,[1]; MDR n = 50,8 µg/mL
same,MIC90,[1]; MDR n = 50,8 µg/mL
same,MIC50,[1]; all isolates n = 100,8 µg/mL
same,MIC90,[1]; all isolates n = 100,16 µg/mL
same,MIC50,[1]; non-MDR n = 50,8 µg/mL
same,MIC90,[1]; non-MDR n = 50,16 µg/mL
same,MIC,"[1]; read-out: MAX (maximum MIC), non-MDR n = 50",32 µg/mL
same,MIC,"[1]; read-out: MAX (maximum MIC; all strains inhibited), MDR n = 50",16 µg/mL
same,MIC,"[1]; read-out: MAX (maximum MIC; all strains inhibited), all isolates n = 100",32 µg/mL
same,MIC,"[1]; read-out: MIN (minimum MIC), all isolates n = 100",1 µg/mL
same,MIC,"[1]; read-out: MIN (minimum MIC), non-MDR n = 50",1 µg/mL
same,MAX (maximum MIC; all strains inhibited),[1]; MDR n = 50,16 µg/mL
same,MIC,"[2]; Enterococcus faecalis, ATCC29212",0.06 µg/mL
same,MIC,"[2]; QC strain E. faecalis ATCC 29212, test date 2021-11-26",0.06 µg/mL
same,Cumulative % at MIC,[3]; MIC […],25.0%
same,MIC,[3]; S. pneumoniae IHMA N° 1775387,0.5 µg/mL
same,MIC,[3]; S. pneumoniae IHMA N° 1776057,0.5 µg/mL
same,MIC,[3]; S. pneumoniae IHMA N° 1785617,0.25 µg/mL
same,MIC,[3]; S. pneumoniae IHMA N° 1800765,0.5 µg/mL
same,MIC,[3]; S. pneumoniae IHMA N° 1811259,0.06 µg/mL
same,MIC,[3]; S. pneumoniae IHMA N° 1831562,0.5 µg/mL
same,MIC,[3]; S. pneumoniae IHMA N° 1902609,0.5 µg/mL
same,MIC,[3]; S. pneumoniae IHMA N° 1979675,0.5 µg/mL
same,MIC,[3]; S. pneumoniae IHMA N° 1991963,0.5 µg/mL
same,MIC,[3]; S. pneumoniae IHMA N° 2057487,0.5 µg/mL
same,MIC,[3]; S. pneumoniae IHMA N° 2073087,0.5 µg/mL
same,MIC,[3]; S. pneumoniae IHMA N° 2117109,0.12 µg/mL
same,"MIC, all isolates",[3]; n = 12,≤ 0.5 µg/mL
same,MIC,"[4]; ATCC27853, QC strain P. aeruginosa ATCC 27853, test date 2021-11-11",64 µg/mL
same,MIC,"[4]; ATCC27853, QC strain P. aeruginosa ATCC 27853, test date 2021-11-26",16 µg/mL

# From PMC10041525, “New Dual Inhibitors of Bacterial Topoisomerases with Broad-Spectrum Antibacterial Activity and In Vivo Efficacy against Vancomycin-Intermediate Staphylococcus aureus” (Journal of Medicinal Chemistry, 2023)
